Measured values published in US10765638B2, “Particle formulation with polycation complex” (Yale University, priority 2017, dated 2020).

Key:
SKMG3-CD8-EGFR cells = test: Phospho-γH2AX foci formation; type: cell-based, human
Method: To determine histone H2AX phosphorylation (γH2AX), cells were cultured on glass cover slips and pre-treated with either vehicle or NGI-1 for 48 hours followed by radiation treatment. Samples were fixed with 4% neutral-buffered formaldehyde, washed (0.1% triton in PBS for 30 minutes) and incubated for 1 hour with protein-blocking solution (PBS containing 10% normal goat-horse serum; Sigma-Aldrich, Saint Louis, Mich., US). Next, the slides were incubated with primary anti-phospho-histone γH2AX S139 (1:500, Millipore-Upstate, Billerica, Mass., US) followed by incubation with secondary antibody Alexa Fluor 555-conjugated goat anti-mouse IgG (1:750, Molecular probes/Invitrogen, Carlsbad, Calif., US), for 1 hour at room temperature. Nuclei were stained using DAPI containing vectashield mounting solution (Vector Labs). Confocal cellular images were captured with an inverted Zeiss LSM 510 Pascal laser confocal microscope (C. Zeiss, Jenna, Germany), using a 63/1.4 plan-apochromat objective. Five randomly selected fields s per slide were analyzed. Cells were counted using the ImageJ program, public domain Java image processing software.
The CD8 cDNA was a gift from Paula Kavathas (Yale University). The CD8-EGFR was constructed according to a strategy that generated a constitutively active IGF-1R (24). […]

RERF-LC-Sq1 = test: Lung cancer cell line viability screen; type: cell-based; conditions: RERF-LC-Sq1, NSCLC; read-out: NGI-1 (IC50)
Method: (§1) NGI-1 activity was screened in 94 lung cancer cell lines at the Center for Molecular Therapeutics at the Massachusetts General Hospital Center for Cancer Research with previously described methods (Garnett et al., Nature, 483(7391):570-5 (2012)). Briefly, cells were treated in 384-well microplates using 9 serial NGI-1 dilutions, returned to an incubator for 96 hours, then stained with 55 μg/ml resazurin (Sigma) prepared in Glutathione-free media for 4 hours. Fluorescent signal intensity was quantified with a plate reader at excitation and emission wavelengths of 535/595 nm to determine viability. Viability ratio across the 9 doses were fitted to determine the half maximal inhibitory concentration (IC50).

NCI-H1838 = test: Lung cancer cell line viability screen; type: cell-based; conditions: Homo sapiens; NCI-H1838, NSCLC, EGFR amplified; read-out: NGI-1 (IC50)
Method: as §1

LC-1F = test: Lung cancer cell line viability screen; type: cell-based; conditions: NSCLC, read-out: NGI-1 (IC50)
Method: as §1

A-427 = test: Lung cancer cell line viability screen; type: cell-based; conditions: Homo sapiens; A-427, NSCLC; read-out: NGI-1 (IC50)
Method: as §1

NCI-H2110 = test: Lung cancer cell line viability screen; type: cell-based; conditions: NCI-H2110, SCLC; read-out: NGI-1 (IC50)
Method: as §1

IST-SL2 = test: Lung cancer cell line viability screen; type: cell-based; conditions: IST-SL2, SCLC; 96 hours; read-out: NGI-1 (IC50)
Method: as §1

BEN = test: Lung cancer cell line viability screen; type: cell-based; conditions: NSCLC, read-out: NGI-1 (IC50)
Method: as §1

PC-3 [JPC-3] = test: Lung cancer cell line viability screen; type: cell-based; conditions: NSCLC, EGFR 747-749 del, read-out: NGI-1 (IC50)
Method: as §1

RERF-LC-MS = test: Lung cancer cell line viability screen; type: cell-based; conditions: NSCLC, read-out: NGI-1 (IC50)
Method: as §1

EMC-BAC-1 = test: Lung cancer cell line viability screen; type: cell-based; conditions: EMC-BAC-1, NSCLC, ErBB3 Y523C; read-out: NGI-1 (IC50)
Method: as §1

Calu-3 = test: Lung cancer cell line viability screen; type: cell-based; conditions: Homo sapiens; Calu-3, NSCLC, ErbB2 amplified; read-out: NGI-1 (IC50)
Method: as §1

H1975 and H1975-OR cells = test: MTT proliferation assay; type: cell-based; conditions: both parental and H1975-OR cell lines; 10 μM NGI-1, 5 days
Method: (§2) The H1975 and A549 cell lines were purchased from ATCC (Manassas, Va.), the PC9 cell line was a gift from Katie Politi, and the HCC-827 and HCC-827-GR lines were gifts from Jeff Engelman (MGH, Boston Mass.). Cell lines were cultured in RPMI 1640+10% FBS supplemented with penicillin and streptomycin (Gibco, Life Technologies, Grand Island, N.Y., US) in a humidified incubator with 5% CO2, and they were kept in culture no more than 4 months after resuscitation from the original stocks. No additional authentication was performed. Mycoplasma cell culture contamination was routinely checked and ruled out using the MycoAlert Mycoplasma Detection Kit (Lonza, Rockland, Me. USA). To generate a TKI resistant cell lines, either PC9 or H1975 cells were exposed to increasing concentrations of gefitinib or osimertinib, respectively. Gefitinib or Osimertinib concentrations were increased stepwise when cells resumed growth kinetics similar to the untreated parental cells over a dose range from 10 to 500 nM. Resistant cell cultures were obtained ˜8-12 weeks after initiation of drug exposure. To confirm the emergence of a therapeutic resistant, MTT assays were performed after allowing the cells to grow in drug-free conditions for at least 4 days.
(§3) Growth rates were determined by CellTiter 96 NonRadioactive Cell Proliferation Assay (Promega; Madison, Wis., USA) according to the manufacturer's directions. Briefly, NSCLC cells (2×103) untreated or treated with 10 μM NGI-1, 100 nM Gefitinib, or 1 μM Osimertinib (Selleck Chemicals), were seeded in triplicate in 96-wells plates and grown in culture medium containing 10% serum. The media was changed with or without new inhibitor every 48 h. Cell numbers were estimated after 0, 3, and 5 days by adding MTT (3-(4,5-dimethylthiazol-2-yl)-2,5-diphenyltetrazolium bromide) reagent to the wells 4 h before taking the spectrophotometric reading (absorbance at 570 nm).

PC9 and PC9-GR cells = test: MTT proliferation assay; type: cell-based; conditions: both parental and T790M expressing PC9 cell lines; 10 μM NGI-1, 5 days
Method: as §2, §3

[1] = test system: HCC827 and HCC827-GR cells; test: MTT proliferation assay; type: cell-based; conditions: both parental and HCC827-GR cells; 10 μM NGI-1, 5 days
Method: as §2, §3

SMILES: Cc1cnc(NC(=O)c2cc(S(=O)(=O)N(C)C)ccc2N2CCCC2)s1 [NGI-1, 5-(dimethylsulfamoyl)-N-(5-methyl-1,3-thiazol-2-yl)-2-(pyrrolidin-1-yl)benzamide]
- phospho-γH2AX foci formation (SKMG3-CD8-EGFR cells): no effect
- IC50 (RERF-LC-Sq1): 7.39 µM
- IC50 (NCI-H1838): 4.29 µM
- IC50 (LC-1F): 7.94 µM
- IC50 (A-427): 4.92 µM
- IC50 (NCI-H2110): 9.01 µM
- IC50 (IST-SL2): 2.63 µM
- IC50 (BEN): 9.72 µM
- IC50 (PC-3 [JPC-3]): 4.9 µM
- IC50 (RERF-LC-MS): 8.07 µM
- IC50 (EMC-BAC-1): 4.1 µM
- IC50 (Calu-3): 8.71 µM
- reduction of proliferation (H1975 and H1975-OR cells): more than 70%
- reduction of proliferation (PC9 and PC9-GR cells): ~90%
- reduction of proliferation [1]: 80%
